Where a name gives a salt, the structure may show the parent alone.
Key:
Assay type in all cases: physicochemical
[1] = Calculated glass transition temperature, 2/3 of the crystalline melting temperature in Kelvin (Beaman's rule); conditions: crystalline melting points around 60° C. (base) and 203° C. (hydrogen fumarate)
Procedure: (§1) The terms “actual glass transition temperature” and “calculated glass transition temperature” as used herein refers to the measured (actual) and theoretical (calculated) glass transition temperature associated with a specific compound of Formula (I) or compound of Formula (I) salt. The actual glass transition temperature is determined from the DSC thermogram for the amorphous material, which is exemplified in example 1 and depicted in FIG. 2. The calculated glass transition temperature is calculated as ⅔ of the melting temperature (in Kelvin) of the crystalline form. FIG. 1 illustrate DSC thermograms of crystalline forms of compound (Ia), from which the melting temperature can be determined. The calculation procedure for estimation of the glass transition temperature is described in example 1.
The glass transition temperature can be estimated as ⅔ of the melting temperature of the crystalline material (measured in Kelvin). This relationship is known as the “Beaman's rule” and applies to a wide range of both organic, inorganic, simple and polymeric materials. (Beaman, R. G. Journal of Polymer Science, 1952, 9(5): 470-472).
(§2) As stated in the description of the present application, it is generally recognized that the glass transition temperature can be estimated as ⅔ of the melting temperature of the crystalline material (measured in Kelvin). From the DSC thermograms in FIG. 1 (left), it is seen that the crystalline base of compound (Ia) has an endothermic peak around 60° C. corresponding to the melting of the crystals. Based on the melting temperature of the crystalline base of compound (la), the calculated glass transition temperature of the amorphous form of this compound is thus ⅔*(60° C.+273)=222 K or −51° C. […] This means that the actual measured Tg of this amorphous form is around 5° C. and not −51° C. as calculated using the Beaman Rule.
(§3) Similar experiments were performed with the hydrogen fumarate of compound (Ia). Here the calculated Tg was based on the observed endothermic peak around 203° C. corresponding to the melting of the crystal (FIG. 1—right). Consequently, the calculated Tg is ⅔ *(203° C.+273)=317 K or 44° C. The thermogram of the amorphous form is shown in FIG. 2 (right) and depicts a change in heat capacity around 66° C. corresponding to a glass transition. This means that the actual measured Tg of the amorphous hydrogen fumarate of compound (Ia) is around 66° C. and not 44° C. as calculated.

[2] = Physical stability of amorphous solids by XRPD on storage at ambient conditions; conditions: ambient conditions (15-35 degrees Celsius, 15-75 percent RH), 96 hours, 1, 4, 9 weeks, 5, 8, 12 months
Procedure: The term “ambient conditions” as used herein refers to conditions with a temperature range of 15-35 degrees Celsius and a relative humidity range of 15-75 percent.
X-Ray powder diffractograms were measured on a PANalytical X′Pert PRO X-Ray Diffractometer using CuKα1 radiation (λ=1.5406 Å). The samples were measured in reflection mode in the 2θ-range 3-40° using an X'celerator detector. (See FIGS. 3, 4 and 5).
The amorphous base and the fumarate salt of compound (Ia) were analyzed using XRPD to determine the physical stability of these solid forms. The presence of a substantially amorphous solid form was confirmed by a diffuse halo XRPD pattern similar to FIG. 3, which is characteristic for a solid amorphous form.
The short-term physical stability of the amorphous solids was analyzed immediately after preparation; the samples were analyzed by XRPD for 96 hours consecutively by alternating measurements every 2 hours. The long-term stability was then assessed by storing the amorphous solids under ambient conditions and analyzing them by XRPD after 1, 4 and 9 weeks as well as 5, 8 and 12 months.

[3] = Actual glass transition temperature (Tg) of the amorphous form by DSC; conditions: amorphous form made by melt quenching in the DSC pan, heated 10° C./min
Procedure: as §1, §2, §3
Different scanning programs are used depending on the purpose of the analysis as given in example 9. In all DSC-experiments, 2-5 mg sample is packed into Tzero aluminum hermetic pans with a perforated lid, and the measurement is performed under 50 mL/min dry nitrogen gas purge.
Melting point and glass transition determined on the base of compound (Ia): Sample of 2-3 mg was packed into Tzero aluminum hermetic pans with a perforated lid and heated 1° C./min to 80° C. (giving the melting point), kept isothermal for 2 min., equilibrated at −50° C., and heated 10° C./min to 110° C. (giving the glass transition of the formed amorphous solid). […]

[4] = Recrystallization of amorphous material upon heating above Tg (DSC); conditions: DSC thermogram of the amorphous material, FIG. 2
Procedure: Melting point and glass transition determined on the base of compound (Ia): Sample of 2-3 mg was packed into Tzero aluminum hermetic pans with a perforated lid and heated 1° C./min to 80° C. (giving the melting point), kept isothermal for 2 min., equilibrated at −50° C., and heated 10° C./min to 110° C. (giving the glass transition of the formed amorphous solid).
Melting point and glass transition of the hydrogen fumarate of compound (Ia): Sample heated 1° C./min to 210° C. (giving the melting point), kept isothermal for 2 min., equilibrated at −50° C., and heated 10° C./min to 230° C. (giving the glass transition of the formed amorphous solid).

Row | Compound | calculated glass transition temperature Tg [1] | calculated glass transition temperature Tg ([1]; listed as amorphous base) | physical stability of the amorphous solid (XRPD pattern) ([2]; listed as free base) | actual (measured) glass transition temperature Tg [3] | actual (measured) glass transition temperature Tg ([3]; listed as amorphous base) | recrystallization upon heating above the glass transition [4] | calculated glass transition temperature Tg ([1]; listed as amorphous hydrogen fumarate salt of compound (Ia)) | physical stability of the amorphous solid (XRPD pattern) [2] | actual (measured) glass transition temperature Tg ([3]; listed as amorphous hydrogen fumarate salt)
1 | [2H]c1c([2H])c([2H])c([C@@H]2C[C@@H](N3CCN(C([2H])([2H])[2H])C(C)(C)C3)c3cc(Cl)ccc32)c([2H])c1[2H] [amorphous base of compound (Ia)] | −51 °C | about −51 °C | weak indication of crystallization of the free base after 5 months | around 5 °C | about 4 °C | do not recrystallize easily above the glass transitions |  |  | 
2 | [2H]c1c([2H])c([2H])c([C@@H]2C[C@@H](N3CCN(C([2H])([2H])[2H])C(C)(C)C3)c3cc(Cl)ccc32)c([2H])c1[2H] [amorphous hydrogen fumarate of compound (Ia)] | 44 °C |  |  | around 66 °C |  | do not recrystallize easily above the glass transitions | ~44 °C | substantially amorphous solids at all timepoints | 66 °C
